Data as given in patent US8674118B2, “Compounds and methods for the treatment or prevention of flavivirus infections” (priority 2005, dated 2014).
Where a name gives a salt, the structure may show the parent alone.

These molecules were tested on HCV RNA replication (replicon cell lines Huh-7, 5.2 and ET) (assay: Cell-Based Luciferase Reporter HCV RNA Replication Assay). Details: Hepatitis C virus, Huh-7, 96 h, Huh-7, 5.2 or ET replicon cells, luciferase counts after 4 days incubation; read-out: IC50.

`CC1CCC(C(=O)N(c2cc(C3=CCCCC3)sc2C(=O)O)C2CC[S+]([O-])CC2)CC1` (stereo not drawn) [Compound 63, 5-cyclohex-1-enyl-3-[(trans-4-methyl-cyclohexanecarbonyl)-(1-oxo-hexahydro-1-thiopyran-4-yl)-amino]-thiophene-2-carboxylic acid] and `C[C@H]1CC[C@H](C(=O)N(c2cc(C3=CCCCC3)sc2C(=O)O)[C@H]2CC[C@@H](C#N)CC2)CC1` [Compound 49, 3-[(cis-4-cyanocyclohexyl)-(trans-4-methylcyclohexanecarbonyl)-amino]-5-cyclohex-1-enyl-thiophene-2-carboxylic acid] cannot be ordered by IC50: less than 5 µM for the first, less than 5 µM for the second.

`C[C@H]1CC[C@H](C(=O)N(c2cc(C3=CCCCC3)sc2C(=O)O)[C@H]2CC[C@@H](n3cncn3)CC2)CC1` [Compound 41, 5-cyclohex-1-enyl-3-[(trans-4-methyl-cyclohexanecarbonyl)-(cis 4-[1,2,4]triazol-1-yl-cyclohexyl)-amino]-thiophene-2-carboxylic acid] and `C[C@H]1CC[C@H](C(=O)N(c2cc(C3=CCCCC3)sc2C(=O)O)[C@H]2CC[C@H](n3cncn3)CC2)CC1` [Compound 48, 5-cyclohex-1-enyl-3-[(trans-4-methylcyclohexanecarbonyl)-(trans-4-[1,2,4]triazol-1-yl-cyclohexyl)-amino]-thiophene-2-carboxylic acid; hydrochloride] cannot be ordered by IC50: less than 5 µM for the first, less than 5 µM for the second.

`CC1OCC(N(c2cc(C3=CCCCC3)sc2C(=O)O)C(=O)[C@H]2CC[C@H](C)CC2)CO1` (relative stereo) [Compound 36, 5-cyclohex-1-enyl-3-[(trans-4-methyl-cyclohexanecarbonyl)-(2-methyl-[1,3]dioxan-5-yl)-amino]-thiophene-2-carboxylic acid] and `C[C@H]1CC[C@H](C(=O)N(c2cc(C3=CCCCC3)sc2C(=O)O)C2COCOC2)CC1` [Compound 30, 5-cyclohex-1-enyl-3-[[1,3]dioxan-5-yl-(trans-4-methylcyclohexanecarbonyl)-amino]-thiophene-2-carboxylic acid] cannot be ordered by IC50: less than 5 µM for the first, less than 5 µM for the second.

`CO[C@H]1CC[C@H](N(c2cc(C3=CCC(C)(C)CC3)sc2C(=O)O)C(=O)[C@H]2CC[C@H](C)CC2)CC1` [Compound 20, 5-(4,4-Dimethyl-cyclohex-1-enyl)-3-[(trans-4-methoxy-cyclohexyl)-(trans-4-methyl-cyclohexanecarbonyl)-amino]-thiophene-2-carboxylic acid] and `CC1(C)CC=C(c2cc(N(C(=O)[C@H]3CC[C@H](C)CC3)[C@H]3CC[C@H](n4cncn4)CC3)c(C(=O)O)s2)CC1` [Compound 95, 5-(4,4-dimethyl-cyclohex-1-enyl)-3-[(trans-4-methyl-cyclohexanecarbonyl)-(trans-4-[1,2,4]triazol-1-yl-cyclohexyl)-amino]-thiophene-2-carboxylic acid; hydrochloride] cannot be ordered by IC50: less than 5 µM for the first, less than 5 µM for the second.

`COC1CCC(N(C(=O)C2CCC(C)CC2)c2cc(C3CCC(F)(F)CC3)sc2C(=O)O)CC1` (stereo not drawn) [Compound 122, 5-(4,4-difluoro-cyclohexyl)-3-[(4-trans-methoxy-cyclohexyl)-(4-trans-methyl-cyclohexanecarbonyl)-amino]-thiophene-2-carboxylic acid] and `CCOCO[C@H]1CC[C@H](N(c2cc(C3=CCCCC3)sc2C(=O)O)C(=O)[C@H]2CC[C@H](C)CC2)CC1` [Compound 125, 5-cyclohex-1-enyl-3-[(trans-4-ethoxymethoxy-cyclohexyl)-(trans-4-methyl-cyclohexanecarbonyl)-amino]-thiophene-2-carboxylic acid] cannot be ordered by IC50: less than 5 µM for the first, less than 5 µM for the second.

`CC(C)C(=O)N1CCC(N(c2cc(C3=CCCCC3)sc2C(=O)O)C(=O)[C@H]2CC[C@H](C)CC2)CC1` [Compound 141, 5-Cyclohex-1-enyl-3-[(1-isobutyryl-piperidin-4-yl)-(trans-4-methylcyclohexanecarbonyl)-amino]-thiophene-2-carboxylic acid] and `CC(C)C(=O)N[C@H]1CC[C@@H](N(c2cc(C3=CCCCC3)sc2C(=O)O)C(=O)[C@H]2CC[C@H](C)CC2)CC1` [Compound 133, 5-cyclohex-1-enyl-3-[(cis-4-isobutyrylamino-cyclohexyl)-(trans-4-methyl-cyclohexanecarbonyl)-amino]-thiophene-2-carboxylic acid] cannot be ordered by IC50: less than 5 µM for the first, less than 5 µM for the second.

First: CC1CCC(C(=O)N(c2cc(C3=CCCCC3)sc2C(=O)O)C2CCC3CCCCC3C2)CC1 (mixture of isomers) [Compound 65, 5-cyclohex-1-enyl-3-[(cis/trans-decahydro-naphthalen-2-yl)-(4-trans-methyl-cyclohexanecarbonyl)-amino]-thiophene-2-carboxylic acid]
Second: CC1CCC(C(=O)N(c2cc(C3=CCCCC3)sc2C(=O)O)C2CCC(C(C)(C)C)CC2)CC1 (stereo not drawn) [Compound 44, 3-[(4-trans-tert-butyl-cyclohexyl)-(4-trans-methyl-cyclohexanecarbonyl)-amino]-5-cyclohex-1-enyl-thiophene-2-carboxylic acid]
The IC50 of the first is lower: less than 5 µM for the first, 5 to 25 µM for the second. The first is the more potent here.

`COCC(COC)N(c1cc(C2=CCCCC2)sc1C(=O)O)C(=O)[C@H]1CC[C@H](C)CC1` [Compound 111, 5-cyclohex-1-enyl-3-[(2-methoxy-1-methoxymethyl-ethyl)-(trans-4-methyl-cyclohexanecarbonyl)-amino]-thiophene-2-carboxylic acid] and `CC1CCC(C(=O)N(c2cc(C3=CCCCC3)sc2C(=O)O)C2CCC(C)(C#N)CC2)CC1` (stereo not drawn) [Compound 99, 3-[(cis-4-cyano-4-methyl-cyclohexyl)-(trans-4-methyl-cyclohexanecarbonyl)-amino]-5-cyclohex-1-enyl-thiophene-2-carboxylic acid] cannot be ordered by IC50: less than 5 µM for the first, less than 5 µM for the second.

First: CC1CCC(C(=O)N(c2cc(C3=CCC(O)CC3)sc2C(=O)O)C2CCC(O)CC2)CC1 (stereo not drawn) [Compound 34, RS-5-(4-hydroxy-cyclohex-1-enyl)-3-[(4-trans-hydroxy-cyclohexyl)-(4-trans-methyl-cyclohexanecarbonyl)-amino]-thiophene-2-carboxylic acid]
Second: C[C@H]1CC[C@H](C(=O)N(c2cc(C3=CC(O)CCC3)sc2C(=O)O)[C@H]2CC[C@H](O)CC2)CC1 (relative stereo) [Compound 82, 5-(3-hydroxy-cyclohex-1-enyl)-3-[(trans-4-hydroxy-cyclohexyl)-(trans-4-methyl-cyclohexanecarbonyl)-amino]-thiophene-2-carboxylic acid]
The IC50 of the first is lower: less than 5 µM for the first, 5 to 25 µM for the second.

`C[C@H]1CC[C@H](C(=O)N(c2cc(C3=CCCCC3)sc2C(=O)O)C2CCC(OC(=O)N3CCOCC3)CC2)CC1` (relative stereo) [Compound 18, Morpholine-4-carboxylic acid 4-[(2-carboxy-5-cyclohex-1-enyl-thiophen-3-yl)-(trans-4-methyl-cyclohexanecarbonyl)-amino]-cyclohexyl ester] and `C[C@H]1CC[C@H](C(=O)N(c2cc(C3=CCCCC3)sc2C(=O)O)C2CCN(C#N)CC2)CC1` [Compound 102, 3-[(1-cyano-piperidin-4-yl)-(trans-4-methyl-cyclohexanecarbonyl)-amino]-5-cyclohex-1-enyl-thiophene-2-carboxylic acid] cannot be ordered by IC50: less than 5 µM for the first, less than 5 µM for the second.

`CN1C(=O)N(C)C2(CCC(N(c3cc(C4=CCC(C)(C)CC4)sc3C(=O)O)C(=O)[C@H]3CC[C@H](C)CC3)CC2)C1=O` (relative stereo) [Compound 75, 5-(4,4-dimethyl-cyclohex-1-enyl)-3-[(1,3-dimethyl-2,4-dioxo-1,3-diaza-spiro[4.5]dec-8-yl)-(trans-4-methyl-cyclohexanecarbonyl)-amino]-thiophene-2-carboxylic acid] and `CS(=O)(=O)N1CCC(N(c2cc(C3=CCCCC3)sc2C(=O)O)C(=O)[C@H]2CC[C@H](C)CC2)CC1` [Compound 101, 5-cyclohex-1-enyl-3-[(1-methanesulfonyl-piperidin-4-yl)-(trans-4-methyl-cyclohexanecarbonyl)-amino]-thiophene-2-carboxylic acid] cannot be ordered by IC50: less than 5 µM for the first, less than 5 µM for the second.

`COC(=O)C(NC(=O)O[C@H]1CC[C@H](N(c2cc(C3=CCCCC3)sc2C(=O)O)C(=O)[C@H]2CC[C@H](C)CC2)CC1)C(C)C` (relative stereo) [Compound 19, 5-Cyclohex-1-enyl-3-[[trans-4-(1-methoxycarbonyl-2-methyl-propylcarbamoyloxy)-cyclohexyl]-(trans-4-methyl-cyclohexanecarbonyl)amino]-thiophene-2-carboxylic acid] and `C[C@H]1CC[C@H](C(=O)N(c2cc(C3=CCCCC3)sc2C(=O)O)[C@H]2CC[C@H](c3nnn[nH]3)CC2)CC1` [Compound 62, 5-cyclohex-1-enyl-3-{(trans-4-methyl-cyclohexanecarbonyl)-[trans-4-(1h-tetrazol-5-yl)-cyclohexyl]-amino}-thiophene-2-carboxylic acid] cannot be ordered by IC50: less than 5 µM for the first, less than 5 µM for the second.

`CCO/N=C1/CC=C(c2cc(N(C(=O)C3CCC(C)CC3)C3CCC(O)CC3)c(C(=O)O)s2)CC1` (stereo not drawn) [Compound 27, 5-{4-ethoxyimino-cyclohex-1-enyl}-3-[(4-trans-hydroxy-cyclohexyl)-(4-trans-methyl-cyclohexanecarbonyl)-amino]-thiophene-2-carboxylic acid] and `CC(C)(C)C1CC=C(c2cc(N(C(=O)[C@H]3CC[C@H](C)CC3)[C@H]3CC[C@H](O)CC3)c(C(=O)O)s2)CC1` (relative stereo) [Compound 13, 5-(4-Tert-butyl-cyclohex-1-enyl)-3-[(trans-4-hydroxy-cyclohexyl)-(trans-4-methyl-cyclohexanecarbonyl)-amino]-thiophene-2-carboxylic acid] cannot be ordered by IC50: less than 5 µM for the first, less than 5 µM for the second.

With `C[C@H]1CC[C@H](C(=O)N(c2cc(C3=CC(O)CCC3)sc2C(=O)O)[C@H]2CC[C@H](OC3CCCCO3)CC2)CC1` (relative stereo) [Compound 55, 5-(3-hydroxy-cyclohex-1-enyl)-3-{(trans-4-methyl-cyclohexanecarbonyl)-[trans-4-(tetrahydro-pyran-2-yloxy)-cyclohexyl]amino}-thiophene-2-carboxylic acid] the IC50 was less than 5 µM.

Same assay, conditions: Huh-7, 5.2 or ET replicon cells, luciferase counts after 4 days incubation; read-out: IC50

`COCC1CCC(N(C(=O)C2CCC(C)CC2)c2cc(C3=CCCCC3)sc2C(=O)O)CC1` (stereo not drawn) [Compound 131, 5-cyclohex-1-enyl-3-[(4-cis-methoxymethyl-cyclohexyl)-(4-trans-methyl-cyclohexanecarbonyl)-amino]-thiophene-2-carboxylic acid] gave an IC50 of less than 5 µM.
